Results from ChEMBL document CHEMBL1201862, “PubChem BioAssay data set” (2004).
Active and inactive are the calls of the source.

What was measured:
BJ = assay: cytotoxicity toward BJ-TERT-LT-ST fibroblasts, dose response, cell-based, RAS-independent, luminescence (AID 1935); assay type: functional; conditions: Homo sapiens;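 also: BJ fibroblasts immortalized with TERT plus LT and ST oncogenes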
[1] = HepG2 cell cytotoxicity, dose response, cytotoxicity control for non-replicating M. tuberculosis project (AID 489018); assay type: functional; conditions: Mycobacterium tuberculosis
cells [2] = assay type: functional
[3] = target: T1, Apoptotic protease-activating factor 1 (Homo sapiens, UniProt O14727); assay type: functional
T1 sequence (O14727 whole entry): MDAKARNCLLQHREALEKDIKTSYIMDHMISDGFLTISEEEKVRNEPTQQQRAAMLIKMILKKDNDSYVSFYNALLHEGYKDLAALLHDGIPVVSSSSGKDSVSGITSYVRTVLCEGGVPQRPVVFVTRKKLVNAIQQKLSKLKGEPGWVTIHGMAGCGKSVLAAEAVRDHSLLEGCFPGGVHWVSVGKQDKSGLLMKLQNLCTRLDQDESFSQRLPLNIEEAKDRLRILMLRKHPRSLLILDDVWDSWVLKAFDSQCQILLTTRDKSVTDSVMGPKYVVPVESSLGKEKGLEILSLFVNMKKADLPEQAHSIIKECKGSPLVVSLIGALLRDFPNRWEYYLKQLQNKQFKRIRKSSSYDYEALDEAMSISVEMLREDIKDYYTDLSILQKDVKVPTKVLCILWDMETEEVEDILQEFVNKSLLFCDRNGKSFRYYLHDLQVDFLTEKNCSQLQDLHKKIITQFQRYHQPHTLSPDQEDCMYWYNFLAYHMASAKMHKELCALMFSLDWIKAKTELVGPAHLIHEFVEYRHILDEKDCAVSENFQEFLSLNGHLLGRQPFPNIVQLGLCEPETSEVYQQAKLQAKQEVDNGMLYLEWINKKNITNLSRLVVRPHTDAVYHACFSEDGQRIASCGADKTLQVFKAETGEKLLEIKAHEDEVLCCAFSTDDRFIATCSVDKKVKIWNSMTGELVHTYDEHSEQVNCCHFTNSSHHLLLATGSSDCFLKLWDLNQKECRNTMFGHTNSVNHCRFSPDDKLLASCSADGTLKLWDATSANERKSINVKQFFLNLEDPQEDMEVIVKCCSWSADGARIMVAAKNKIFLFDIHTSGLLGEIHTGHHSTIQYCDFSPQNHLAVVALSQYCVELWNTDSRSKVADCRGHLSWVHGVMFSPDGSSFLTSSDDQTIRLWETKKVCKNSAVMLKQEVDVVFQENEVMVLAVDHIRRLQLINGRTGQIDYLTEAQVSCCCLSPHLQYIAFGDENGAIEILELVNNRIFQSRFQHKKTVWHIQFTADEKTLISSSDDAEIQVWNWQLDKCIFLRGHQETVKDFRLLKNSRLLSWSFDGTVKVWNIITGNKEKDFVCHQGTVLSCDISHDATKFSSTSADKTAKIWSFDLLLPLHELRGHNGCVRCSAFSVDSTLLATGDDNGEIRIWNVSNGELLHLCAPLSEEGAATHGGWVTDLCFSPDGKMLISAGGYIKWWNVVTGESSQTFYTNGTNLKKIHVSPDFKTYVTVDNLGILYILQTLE

[4] = target: T2, Mannose-6-phosphate isomerase (Homo sapiens, UniProt P34949); assay: human PMI inhibitors, high substrate, primary screen, biochemical, fluorescence intensity, high mannose 6-phosphate (AID 1220)
T2 sequence (P34949 whole entry): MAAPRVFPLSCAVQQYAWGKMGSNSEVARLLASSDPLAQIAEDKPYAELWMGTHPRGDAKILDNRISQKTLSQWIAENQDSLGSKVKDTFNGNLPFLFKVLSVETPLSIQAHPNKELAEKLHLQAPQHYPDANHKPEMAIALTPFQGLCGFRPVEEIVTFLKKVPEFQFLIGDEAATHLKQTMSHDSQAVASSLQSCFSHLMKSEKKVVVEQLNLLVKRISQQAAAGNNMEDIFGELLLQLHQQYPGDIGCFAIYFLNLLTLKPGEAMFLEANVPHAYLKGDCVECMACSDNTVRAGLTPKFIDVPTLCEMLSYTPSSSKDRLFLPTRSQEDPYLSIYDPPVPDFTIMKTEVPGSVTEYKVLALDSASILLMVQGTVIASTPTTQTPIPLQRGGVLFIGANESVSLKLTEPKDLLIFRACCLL

[5] = target: T3, Zinc finger protein mex-5 (Caenorhabditis elegans, UniProt Q9XUB2); assay: MEX-5/TCR-2 RNA interaction inhibitors, dose response, biochemical, C. elegans, fluorescence polarization (AID 1960)
T3 sequence (Q9XUB2 whole entry): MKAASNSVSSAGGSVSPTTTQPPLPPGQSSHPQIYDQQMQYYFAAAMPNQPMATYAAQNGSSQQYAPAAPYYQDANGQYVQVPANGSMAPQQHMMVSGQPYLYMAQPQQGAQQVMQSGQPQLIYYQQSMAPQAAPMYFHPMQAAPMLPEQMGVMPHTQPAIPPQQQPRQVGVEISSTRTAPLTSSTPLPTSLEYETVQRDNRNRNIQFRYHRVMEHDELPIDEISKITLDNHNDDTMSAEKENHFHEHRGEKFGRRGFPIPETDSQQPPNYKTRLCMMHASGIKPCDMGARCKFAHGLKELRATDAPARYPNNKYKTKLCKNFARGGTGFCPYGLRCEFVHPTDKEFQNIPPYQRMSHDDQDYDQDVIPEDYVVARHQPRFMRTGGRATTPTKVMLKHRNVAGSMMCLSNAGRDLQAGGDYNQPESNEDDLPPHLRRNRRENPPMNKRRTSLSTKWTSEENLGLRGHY

[6] = target: G-protein coupled receptor 55 (Homo sapiens, UniProt Q9Y2T6); assay: GPR55 antagonists blocking LPI-driven arrestin recruitment, primary screen, imaging, U2OS, beta-arrestin-GFP, LPI agonist (AID 2013); assay type: functional;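 also: antagonist potency measured as reduced agonist-driven arrestin aggregation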
Chain of G-protein coupled receptor 55 (Q9Y2T6 whole entry): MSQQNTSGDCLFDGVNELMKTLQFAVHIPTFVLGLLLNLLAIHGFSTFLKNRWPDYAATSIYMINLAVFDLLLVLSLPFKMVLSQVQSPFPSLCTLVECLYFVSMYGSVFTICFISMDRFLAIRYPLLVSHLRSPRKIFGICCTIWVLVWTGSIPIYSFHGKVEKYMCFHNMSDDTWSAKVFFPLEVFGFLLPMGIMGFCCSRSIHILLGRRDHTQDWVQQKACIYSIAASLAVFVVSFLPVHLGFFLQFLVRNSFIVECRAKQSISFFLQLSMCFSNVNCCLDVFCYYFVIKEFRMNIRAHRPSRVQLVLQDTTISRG

[7] = target: ATP-dependent molecular chaperone HSP82 (Candida albicans (strain WO-1) (Yeast), UniProt C4YTQ8); assay: loss of DOC-induced GRE-beta-galactosidase reporter signal, dose response, Hsp90 inhibitor project, S. cerevisiae, luminescence (AID 2400); assay type: functional, cell-based;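 also: beta-galactosidase luminescence from glucocorticoid response element reporter as proxy for Hsp90 function; inhibitor potency where signal loss means Hsp90 inhibition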
Chain of ATP-dependent molecular chaperone HSP82 (C4YTQ8 whole entry): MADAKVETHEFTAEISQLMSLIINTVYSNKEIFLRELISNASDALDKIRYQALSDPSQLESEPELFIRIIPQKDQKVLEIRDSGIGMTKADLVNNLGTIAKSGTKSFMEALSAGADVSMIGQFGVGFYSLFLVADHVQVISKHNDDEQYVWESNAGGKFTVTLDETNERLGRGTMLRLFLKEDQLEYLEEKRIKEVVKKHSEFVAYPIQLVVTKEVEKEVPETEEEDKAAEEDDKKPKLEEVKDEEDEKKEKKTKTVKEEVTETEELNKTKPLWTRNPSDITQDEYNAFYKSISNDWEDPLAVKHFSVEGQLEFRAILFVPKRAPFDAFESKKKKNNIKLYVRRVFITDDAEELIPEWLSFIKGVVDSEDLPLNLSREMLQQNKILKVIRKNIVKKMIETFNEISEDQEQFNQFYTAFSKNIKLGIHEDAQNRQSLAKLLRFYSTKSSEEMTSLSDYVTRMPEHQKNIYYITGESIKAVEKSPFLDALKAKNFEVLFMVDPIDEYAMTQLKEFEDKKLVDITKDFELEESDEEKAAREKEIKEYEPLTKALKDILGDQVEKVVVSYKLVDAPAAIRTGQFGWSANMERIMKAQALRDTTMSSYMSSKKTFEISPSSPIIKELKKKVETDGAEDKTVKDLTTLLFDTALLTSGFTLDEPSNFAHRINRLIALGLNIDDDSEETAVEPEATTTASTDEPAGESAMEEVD

[8] = Shn3 3'UTR reporter inhibitors, dose response, cell-based, Clone20 osteoblasts, firefly luciferase, cherry-picked (AID 624132); assay type: functional;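 also: firefly luciferase luminescence from reporter carrying the Shn3 3'UTR in osteoblasts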
cells [9] = assay type: functional, cell-based
Caspase-9 = Caspase-9 (Homo sapiens, UniProt P55211); assay: caspase-9 enzyme inhibition, dose response, selectivity assay for caspase-6 inhibitor project, biochemical, fluorescence, plate reader, cherry-picked samples (AID 743293)
Chain of Caspase-9 (P55211 1-315 limits assumed): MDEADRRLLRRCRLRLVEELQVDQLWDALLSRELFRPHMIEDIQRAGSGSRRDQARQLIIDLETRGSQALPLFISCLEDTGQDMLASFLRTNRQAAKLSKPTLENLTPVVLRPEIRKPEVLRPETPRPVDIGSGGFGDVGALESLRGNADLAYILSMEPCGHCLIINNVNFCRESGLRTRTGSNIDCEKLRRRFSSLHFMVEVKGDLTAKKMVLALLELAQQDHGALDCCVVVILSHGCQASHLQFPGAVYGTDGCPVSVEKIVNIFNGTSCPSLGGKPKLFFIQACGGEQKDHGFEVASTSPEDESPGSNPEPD
Chain of Caspase-9 (P55211 331-416 limits assumed): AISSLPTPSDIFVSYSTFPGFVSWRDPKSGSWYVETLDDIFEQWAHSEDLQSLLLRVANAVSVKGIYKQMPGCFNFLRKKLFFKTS

[10] = target: T4, Mitochondrial peptide methionine sulfoxide reductase (Bos taurus, UniProt P54149); assay: Absorbance-based biochemical high throughput dose response assay for activators of Methionine sulfoxide reductase A (MsrA).; assay type: functional
T4 sequence (P54149 whole entry): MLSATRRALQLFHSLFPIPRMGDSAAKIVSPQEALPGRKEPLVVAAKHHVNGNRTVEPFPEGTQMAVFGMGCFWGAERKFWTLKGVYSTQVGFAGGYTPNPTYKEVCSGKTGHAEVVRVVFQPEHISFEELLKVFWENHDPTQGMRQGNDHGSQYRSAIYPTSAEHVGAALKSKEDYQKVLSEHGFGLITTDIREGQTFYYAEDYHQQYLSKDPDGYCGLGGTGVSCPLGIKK

Question: Which EC50 (BJ) does the source give for `O=C(Cc1ccc([N+](=O)[O-])cc1)N/N=C/c1ccc([N+](=O)[O-])o1` here?
Answer: The EC50 was 18.3 µM (active).

Question: What about the CC50 [1] of the same compound?
Answer: The CC50 was 7.53 µM (active).

Question: And the IC50 (cells [2])?
Answer: Its IC50 is 13.2 µM (active).

Question: With `CCCCNc1cc(NC(C)=O)cc2cc(OC)c(OC)cc12` as the compound, how does the IC50 [3] read?
Answer: Its IC50 is 3.62 µM (active).

Question: What about the IC50 [4] of the same compound?
Answer: Its IC50 is > 50 µM (not active).

Question: For `Cn1nc(-c2ccc(Cl)cc2)nc2c(=O)n(C)c(=O)nc1-2`, which EC50 [5] is on record?
Answer: Its EC50 is 16.8 µM (active).

Question: What about the IC50 [6] of the same compound?
Answer: The IC50 was 7.35 µM (active).

Question: Which results are given for `COc1ccc(C(NC(=O)C(C)C)c2ccc3cccnc3c2O)cc1` (configuration not stated)?
Answer: EC50 [7]: 52.4 µM (active); AC50 [8]: 1.35 µM (active); EC50 (cells [9]): 5.77 µM (active)

Question: For `NS(=O)(=O)c1ccc(NC(=O)COC(=O)c2ccc([N+](=O)[O-])s2)cc1`, which AC50 (Caspase-9) is on record?
Answer: The AC50 was 22.8 µM (active).

Question: What about the EC50 [10] of the same compound?
Answer: The EC50 was > 104 µM (inactive).
